Experimental data as given in US20050054696A1, “Indole compounds and medicinal use thereof” (priority 2001, published 2005).

Biological target: T1, recombinant human liver glycogen phosphorylase (HLGPa) (Homo sapiens, UniProt P06737)
T1 construct: made in house; host or cells: Sf9 insect cells (unpurified cell lysate used as enzyme solution)
T1 sequence (P06737 1-847): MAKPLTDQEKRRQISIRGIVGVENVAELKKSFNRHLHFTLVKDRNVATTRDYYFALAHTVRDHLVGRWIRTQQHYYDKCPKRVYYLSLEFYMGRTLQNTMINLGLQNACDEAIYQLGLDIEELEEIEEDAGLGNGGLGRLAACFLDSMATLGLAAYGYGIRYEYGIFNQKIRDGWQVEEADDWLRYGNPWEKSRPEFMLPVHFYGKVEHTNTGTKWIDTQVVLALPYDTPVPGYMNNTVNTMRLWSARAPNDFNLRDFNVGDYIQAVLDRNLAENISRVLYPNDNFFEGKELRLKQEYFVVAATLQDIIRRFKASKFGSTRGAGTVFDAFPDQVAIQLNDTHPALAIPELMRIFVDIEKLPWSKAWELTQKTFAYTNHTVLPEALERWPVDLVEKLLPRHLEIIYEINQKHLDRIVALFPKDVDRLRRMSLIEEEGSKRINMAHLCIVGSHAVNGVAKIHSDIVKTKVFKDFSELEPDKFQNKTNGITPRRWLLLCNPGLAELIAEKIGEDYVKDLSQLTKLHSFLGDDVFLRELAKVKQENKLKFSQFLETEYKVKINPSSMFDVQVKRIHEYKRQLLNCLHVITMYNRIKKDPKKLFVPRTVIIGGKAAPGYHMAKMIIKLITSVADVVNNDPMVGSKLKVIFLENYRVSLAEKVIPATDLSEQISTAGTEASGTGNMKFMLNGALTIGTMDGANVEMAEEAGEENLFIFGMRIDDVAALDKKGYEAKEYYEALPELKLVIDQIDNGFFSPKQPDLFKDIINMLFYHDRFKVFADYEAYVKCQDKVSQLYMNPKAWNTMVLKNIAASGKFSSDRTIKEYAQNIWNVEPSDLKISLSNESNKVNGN
Assay: Measurement of liver glycogen phosphorylase activity (enzyme inhibitory activity against HLGPa)
Type: biochemical
Conditions: Sf9 cell lysate expressing recombinant enzyme; reverse reaction (glycogen synthesis from G1-P), phosphate by malachite green, 60 min room temperature
Protocol: Measurement Method of Liver Glycogen Phosphorylase Activity
The measurement of the glycogen phosphorylase activity was performed by measuring the concentration of phosphoric acic produced by a reverse reaction, that is, a reaction wherein the glycogen phosphorylase synthesizes glycogen from G1-P. A cell lysate of Sf9 cells that forcibly expressed recombinant human liver glycogen phosphorylase was diluted to a protein amount of 80 μg/mL with 1 mM imidazole-hydrochloric acid buffer (pH 7.0, containing 0.2 mM PMSF, 250 mM NaCl, 0.025% BSA) and the dilute cell lysate was used as an enzyme solution of human liver glycogen phosphorylase. As a substrate solution, 25 mM Tris-HCl buffer (pH 7.2, containing 250 mM KCl, 6.25 mM MgCl2, 6.25 mM EGTA, 1.25 mM glucose-1-phosphate, 2.5 mg/ml glycogen, 7.5 mM glucose) was used. The test drug was dissolved in 0.5% dimethyl sulfoxide (DMSO). To a mixture of the test drug (10 μl) and the substrate solution (20 μl) was added an enzyme solution (20 μl) to start the enzyme reaction. As a control, 0.5% DMSO was added instead of the test drug. One free of addition of enzyme was used as a blank. The mixture was reacted at room temperature for 60 min, and a malachite green solution (50 μl) was added. The mixture was further reacted at room temperature for 20 min and absorbance at 650 nm was measured. An enzyme solution was added to the blank simultaneously with the malachite green solution and the measurement was done in the same manner. The percent inhibition (%) of the test drug was calculated from ((value of control−value of the test drug)/(value of control−value of blank))×100 (%).

IC50 [nM] | Structure (SMILES)
62 | CN(C)C(=O)COc1cccc(C(=O)NNC(=O)c2cc3cc(Cl)ccc3[nH]2)c1 [Example 1-71, 2-(3-(2-(5-chloro-1H-indole-2-carbonyl)hydrazinocarbonyl)phenoxy)-N,N-dimethylacetamide]
23 | O=C(NN1C(=O)CN(c2ccccc2)C1=O)c1cc2cc(Cl)ccc2[nH]1 [Example 4-2, N-(2,4-dioxo-1-phenylimidazolidin-3-yl)-5-chloro-1H-indole-2-carboxamide]
67 | N=C(NNC(=O)c1cc2cc(Cl)ccc2[nH]1)c1ccc(F)c(F)c1 [Example 6-23, 5-chloro-1H-indole-2-carboxylic acid 2-((3,4-difluorophenyl)-imino-methyl)hydrazide methanesulfonate]
170 | COc1ccc([C@H]2NC(=O)N(NC(=O)c3cc4cc(Cl)ccc4[nH]3)C2=O)cc1 [Example 4-20, 5-chloro-1H-indole-2-carboxylic acid ((4R)-2,5-dioxo-4-(4-methoxyphenyl)imidazolidin-1-yl)amide]
> 100 | CC(C)c1ccc2[nH]c(C(=O)NNC(=O)c3ccc(F)cc3N)cc2c1 [Example 1-37, 2-amino-4-fluorobenzoic acid 2-(5-isopropyl-1H-indole-2-carbonyl)hydrazide]
71 | O=C(Nn1c(=O)oc2ccccc2c1=O)c1cc2cc(Cl)ccc2[nH]1 [Example 2-2, N-(1,2,3,4-tetrahydro-2,4-dioxobenzo[e][1,3]oxazin-3-yl)-5-chloro-1H-indole-2-carboxamide]
50 | Cc1ccccc1C(=N)NNC(=O)c1cc2cc(Cl)ccc2[nH]1 [Example 1-133, 5-chloro-1H-indole-2-carboxylic acid 2-(imino-(o-tolyl)-methyl)hydrazide]
18 | O=C(NNC(=O)c1ccco1)c1cc2cc(Cl)ccc2[nH]1 [Example 1-78, furan-2-carboxylic acid 2-(5-chloro-1H-indole-2-carbonyl)hydrazide]
> 100 | O=C(NNC(=O)c1cc2cc(OCc3ccccc3)ccc2[nH]1)c1ccccc1 [Example 1-123, benzoic acid 2-(5-benzyloxy-1H-indole-2-carbonyl)hydrazide]
91 | O=C(NNC(=O)c1ccccc1Cl)c1cc2cc(Cl)ccc2[nH]1 [Example 1-19, 2-chlorobenzoic acid 2-(5-chloro-1H-indole-2-carbonyl)hydrazide]
28 | Nc1cc(F)ccc1C(=O)NNC(=O)c1cc2cc(Br)ccc2[nH]1 [Example 1-103, 2-amino-4-fluorobenzoic acid 2-(5-bromo-1H-indole-2-carbonyl)hydrazide]
260 | O=C(NNC(=O)c1cc2cc(Cl)ccc2[nH]1)c1ccncc1 [Example 1-42, isonicotinic acid 2-(5-chloro-1H-indole-2-carbonyl)hydrazide]
680 | Cc1cccc(N2CCC(=O)N(NC(=O)c3cc4cc(Cl)ccc4[nH]3)C2=O)c1 [Example 3-12, 5-chloro-1H-indole-2-carboxylic acid (2,4-dioxo-1-(m-tolyl)perhydropyrimidin-3-yl)amide]
880 | O=C(NNC(=O)c1cc2cc(Cl)ccc2[nH]1)c1ccsc1 [Example 1-83, thiophene-3-carboxylic acid 2-(5-chloro-1H-indole-2-carbonyl)hydrazide]
240 | O=C(NNC(=O)c1cc2cc(Cl)ccc2[nH]1)c1cccc(C(F)(F)F)c1 [Example 1-30, 3-trifluoromethylbenzoic acid 2-(5-chloro-1H-indole-2-carbonyl)hydrazide]
54 | Cc1ccc2[nH]c(C(=O)NNC(=O)c3ccsc3)cc2c1 [Example 1-107, thiophene-3-carboxylic acid 2-(5-methyl-1H-indole-2-carbonyl)hydrazide]
160 | COc1ccccc1C(=N)NNC(=O)c1cc2cc(Cl)ccc2[nH]1 [Example 6-24, 5-chloro-1H-indole-2-carboxylic acid 2-(imino-(2-methoxyphenyl)-methyl)hydrazide methanesulfonate]

IC50 [nM] | Structure (SMILES)
21 | O=C(NNC(=O)c1cc2cc(Cl)ccc2[nH]1)c1cn[nH]c1 [Example 1-104, 1H-pyrazole-4-carboxylic acid 2-(5-chloro-1H-indole-2-carbonyl)hydrazide]
28 | O=C(NNC(=O)c1sccc1Cl)c1cc2cc(Cl)ccc2[nH]1 [Example 1-86, 3-chlorothiophene-2-carboxylic acid 2-(5-chloro-1H-indole-2-carbonyl)hydrazide]
40 | O=C(Nn1c(=O)[nH]c2ccc(Cl)cc2c1=O)c1cc2cc(Cl)ccc2[nH]1 [Example 2-18, 5-chloro-1H-indole-2-carboxylic acid (6-chloro-1,2,3,4-tetrahydro-2,4-dioxoquinazolin-3-yl)amide]
87 | Nc1cccc(Cl)c1C(=O)NNC(=O)c1cc2cc(Cl)ccc2[nH]1 [Example 1-55, 2-amino-6-chlorobenzoic acid 2-(5-chloro-1H-indole-2-carbonyl)hydrazide]
180 | N=C(NNC(=O)c1cc2cc(Cl)ccc2[nH]1)c1cnccn1 [Example 1-140, 5-chloro-1H-indole-2-carboxylic acid 2-(imino-(pyrazin-2-yl)-methyl)hydrazide]
87 | Cc1cccc(N)c1C(=O)NNC(=O)c1cc2cc(Cl)ccc2[nH]1 [Example 1-98, 2-amino-6-methylbenzoic acid 2-(5-chloro-1H-indole-2-carbonyl)hydrazide]
> 100 | O=C(NN1C(=O)N[C@H](Cc2ccccc2)C1=O)c1cc2cc(Cl)ccc2[nH]1 [Example 4-10, 5-chloro-1H-indole-2-carboxylic acid ((4R)-4-benzyl-2,5-dioxoimidazolidin-1-yl)amide]
10 | Cc1ccc(N)c(C(=O)NNC(=O)c2cc3cc(Cl)ccc3[nH]2)c1 [Example 1-97, 2-amino-5-methylbenzoic acid 2-(5-chloro-1H-indole-2-carbonyl)hydrazide]
83 | O=C(NNC(=O)c1ccc(Cl)nc1Cl)c1cc2cc(Cl)ccc2[nH]1 [Example 1-79, 2,6-dichloronicotinic acid 2-(5-chloro-1H-indole-2-carbonyl)hydrazide]
50 | O=C(NN1C(=O)CCN(c2cccc(F)c2)C1=O)c1cc2cc(Cl)ccc2[nH]1 [Example 3-7, 5-chloro-1H-indole-2-carboxylic acid (1-(3-fluorophenyl)-2,4-dioxoperhydropyrimidin-3-yl)amide]
150 | Cc1ccccc1N1CCC(=O)N(NC(=O)c2cc3cc(Cl)ccc3[nH]2)C1=O [Example 3-15, 5-chloro-1H-indole-2-carboxylic acid (2,4-dioxo-1-(o-tolyl)perhydropyrimidin-3-yl)amide]
270 | O=C(NNC(=O)c1cc2cc(Cl)ccc2[nH]1)c1cc(F)c(F)c(F)c1 [Example 1-93, 3,4,5-trifluorobenzoic acid 2-(5-chloro-1H-indole-2-carbonyl)hydrazide]
86 | Cc1ccc2[nH]c(C(=O)NNC(=O)c3ccccc3)cc2c1 [Example 1-33, benzoic acid 2-(5-methyl-1H-indole-2-carbonyl)hydrazide]
78 | Cc1ccc2[nH]c(C(=O)NNC(=O)c3cccn3C)cc2c1 [Example 1-106, 1-methyl-1H-pyrrole-2-carboxylic acid 2-(5-methyl-1H-indole-2-carbonyl)hydrazide]
56 | O=C(NNC(=O)c1cccc(F)c1F)c1cc2cc(Cl)ccc2[nH]1 [Example 1-91, 2,3-difluorobenzoic acid 2-(5-chloro-1H-indole-2-carbonyl)hydrazide]
71 | O=C(NNC(=O)c1cccc2ccccc12)c1cc2cc(Cl)ccc2[nH]1 [Example 1-92, 5-chloro-1H-indole-2-carboxylic acid 2-(naphthalene-1-carbonyl)hydrazide]
